Measured values taken from patent publication US11311543B2, “Compositions and methods for inhibiting PTPN22” (YALE UNIVERSITY, priority 2016, dated 2022).

Tested on: PTPN22
Experiment: PTPN22 expression by western blot in shRNA-transduced RAMOS B cell line
Format: cell-based
Details: human RAMOS B cell line, GFP+ shRNA+ vs GFP-
Method: FIG. 10A depicts flow cytometry analysis of Ramos B cells transduction efficiency. Ramos B cells were transduced with three different GFP-tagged shRNA PTPN22 expressing lentiviruses and probed for GFP expression. […] Percentage of knock-down is indicated. FIG. 10B depicts the frequencies of polyreactive new emigrant B cells from sorted GFP− fractions were determined. […] For each B-cell fraction, the frequency of reactive (filled area) and non-reactive (open area) clones is summarized in pie charts with the total number of clones tested indicated in the center. FIG. 10C depicts the frequencies of HEp-2 reactive new emigrant B cells from sorted GFP− fractions were determined. […] For each B-cell fraction, the frequency of reactive (filled area) and non-reactive (open area) clones is summarized in pie charts with the total number of clones tested indicated in the center. FIG. 10D depicts the frequencies of antinuclear new emigrant B cells are compared between GFP− and GFP+ shRNA+ new emigrant B cells. […]
Total cell lysates were separated by SDS page, transferred to PVDF membranes, probed with mouse anti-PTPN22 (Invitrogen) and detected by chemiluminescence (Amersham ECL Prime Western Blotting detection Reagent) using a GBox documentation system (Syngene). For quantification, blots were stripped with stripping buffer (Pierce) and reprobed with a mouse anti-β-Actin antibody (Sigma-Aldrich).

#3: shRNA targeting human PTPN22, 5′-AAGAATCCACCTGACTTCC-3′
inhibition of PTPN22 expression detected by western blot: about 80%
